{
  "source": "patent EP1285918A1",
  "about": "“C7 Ester substituted taxanes as antitumor agents” (Florida State University Research Foundation, Inc., priority 2001, dated 2003)",
  "key": {"[1]": {"test_system": "NCI-H1299 (H1299) carcinoma", "experimental": "Two antitumor compounds were formulated for an i.v. dosing regime prepared in the following vehicle: 10% ethanol, 10% Cremophor and 80% isotonic saline. […] Other compounds were formulated similarly.\nThe MTDs for the antitumor compounds were calculated from earlier single dose data for mice receiving i.v. administration of these compounds. […] Vehicle control animals were dosed twice intravenously with half the total volume being given separated by one hour. The study was terminated at Day 60.\nThe results are summarized in Table 1 and include mean days of survival (MDS), number of toxic deaths, number of survivors, number of complete or partial responses, and number with stable disease. The mean days of survival is the number of days after which a neoplasm reached a size of 1.5 g and the animal was euthanized. A complete response is obtained if the tumor is not palpable at the end of the study. A partial response is obtained if the tumor shrinks to a size smaller than its size on Day 1 of the study.\nA tumor scoring system was designed to provide a more quantitative ranking of efficacy (therapeutic potential) among the antitumor agents evaluated against the different human solid tumor xenografts. Each mouse in a study was given a score of from 1 to 10 at the end of the study. The scores can be summarized as follows:\nThe individual score for each mouse was averaged into a mean score for each treatment group. […]\nThe treatment protocol for the H1299 test was identical to the SK-MES test protocol. […]"}, "[2]": {"test_system": "MX-1 Human Breast Carcinoma Xenograft", "settings": "for MDS (n): days until tumor reached 1.5 g", "experimental": "The antitumor compounds were prepared in the following vehicle: 5% ethanol, 5% Cremophor and 90% isotonic saline.\nFemale Nu/Nu mice (12-13 weeks of age; implanted with 1 mm^3 MX-1 human breast carcinoma fragments in the flank) were sorted into treatment groups of six mice each (MX-1 tumor size ranges and group mean MX-1 tumor size ranges were 56-138 mg and 68-74 mg, respectively). […] All treatments were administered as a single oral bolus on Day 1, and the study was terminated on Day 60.\n(§1) The mean days of survival is the number of days after which an MX-1 neoplasm reached a size of 1.5 g and the animal was euthanized. A complete response is obtained if the tumor is not palpable at the end of the study. A partial response is obtained if the tumor shrinks to a size smaller than its size on Day 1 of the study."}, "[3]": {"test_system": "HCT116 human colon carcinoma xenograft", "settings": "for long term survivors at the end of the experiment: HCT116, i.v. and oral groups together (out of thirty), Day 60; for Survivors / Complete Responses / Partial Responses / Stable Disease / Toxic Deaths: 10 mice/group, study end Day 60", "excerpt": "Six groups consisting of ten mice in each group were made up of female Nu/Nu mice (8-9 weeks of age; implanted with 1 mm^3 HCT116 human […] carcinoma fragments in the flank). Another six groups consisting of ten mice in each group were made up of male Nu/Nu mice (6-7 weeks of age; implanted with 1 mm^3 HCT116 human […] carcinoma fragments in the flank). […] The study was terminated on Day 60.\nThe results are summarized in Table 19 for the female mice and Table 20 for the male mice. Included are mean days of survival (MDS), number of toxic deaths, number of survivors, number of complete or partial responses, and number with stable disease. The mean days of survival is the number of days after which an […] neoplasm reached a size of 1.5 g and the animal was euthanized. A complete response is obtained if the tumor is not palpable at the end of the study. A partial response is obtained if the tumor shrinks to a size smaller than its size on Day 1 of the study. […]"}, "[4]": {"test_system": "SKMES human lung cancer xenograft", "settings": "for 62-day survivors: 6 mice", "experimental": "Female Nu/Nu mice (6-8 weeks of age; implanted with 1 mm^3 SKMES lung carcinoma fragments in the flank) were sorted into treatment groups of six mice each. […] Treatment was administered as a single bolus on Day 1, and the study was terminated on Day 62.\nas §1, with “a SKMES” for “an MX-1”, “2.0” for “1.5”"}, "[5]": {"settings": "i.v. split dose qd x 1 at MTD (Taxol 36 mg/kg, 1393 72.1 mg/kg), 6 mice/group, Day 60"}, "[6]": {"settings": "28 mg/kg single oral bolus Day 1, 6 mice/group, study end Day 60"}, "[7]": {"settings": "40 mg/kg single oral bolus Day 1, 6 mice/group, study end Day 60"}, "[8]": {"settings": "female mice, 18 mg/kg i.v. qd x 5"}, "[9]": {"settings": "male mice, 18 mg/kg i.v. qd x 5"}, "[10]": {"settings": "40 mg/kg single oral bolus Day 1, 6 mice/group, study end Day 62"}},
  "note": "Like-named read-outs stand apart in the source and are kept apart here.",
  "data": [
    {"smiles": "CCC(=O)OC1CC2OCC2(OC(C)=O)C2C(OC(=O)c3ccccc3)C3(O)CC(OC(=O)C(O)C(NC(=O)OC(C)(C)C)c4ccco4)C(C)=C(C(O)C(=O)C12C)C3(C)C", "note": "(stereo not shown) [Compound 1393, 3'-Desphenyl-3'-(2-furyl)-7-propionyl taxotere]", "values": [
      {"measurement": "Survivors", "setting": "[1]; [5]", "result": 4},
      {"measurement": "Survivors", "setting": "[2]; 73.4 mg/kg single oral bolus Day 1, 6 mice/group, study end Day 60", "result": 5},
      {"measurement": "Survivors", "setting": "[2]; 105 mg/kg single oral bolus Day 1, 6 mice/group, study end Day 60", "result": 5},
      {"measurement": "long term survivors at the end of the experiment", "setting": "[3]; female mice, 1393 104 mg/kg", "result": "twenty-eight"},
      {"measurement": "long term survivors at the end of the experiment", "setting": "[3]; male mice, 1393 73 mg/kg", "result": "Twenty-nine"},
      {"measurement": "Survivors", "setting": "[3]; female mice, 104 mg/kg i.v. in 5% ethanol and 95% Liposyn II (Group 4)", "result": 10},
      {"measurement": "Survivors", "setting": "[3]; female mice, 104 mg/kg i.v. in 5% ethanol and 95% Liposyn III (Group 5)", "result": 10},
      {"measurement": "Survivors", "setting": "[3]; female mice, 104 mg/kg oral in 5% ethanol, 5% Cremophor and 90% isotonic saline (Group 6)", "result": 9},
      {"measurement": "Survivors", "setting": "[3]; male mice, 73 mg/kg i.v. in 5% ethanol and 95% Liposyn II (Group 4)", "result": 10},
      {"measurement": "Survivors", "setting": "[3]; male mice, 73 mg/kg i.v. in 5% ethanol and 95% Liposyn III (Group 5)", "result": 8},
      {"measurement": "Survivors", "setting": "[3]; male mice, 73 mg/kg oral in 5% ethanol, 5% Cremophor and 90% isotonic saline (Group 6)", "result": 10},
      {"measurement": "Survivors", "setting": "[4]; 5.2 mg/kg single IV bolus Day 1, 6 mice/group, study end Day 62", "result": 0},
      {"measurement": "Survivors", "setting": "[4]; 5.2 mg/kg single oral bolus Day 1, 6 mice/group, study end Day 62", "result": 0},
      {"measurement": "Survivors", "setting": "[4]; 10.4 mg/kg single IV bolus Day 1, 6 mice/group, study end Day 62", "result": 0},
      {"measurement": "Survivors", "setting": "[4]; 10.4 mg/kg single oral bolus Day 1, 6 mice/group, study end Day 62", "result": 0},
      {"measurement": "Survivors", "setting": "[4]; 20.8 mg/kg single IV bolus Day 1, 6 mice/group, study end Day 62", "result": 0},
      {"measurement": "Survivors", "setting": "[4]; 20.8 mg/kg single oral bolus Day 1, 6 mice/group, study end Day 62", "result": 0},
      {"measurement": "Survivors", "setting": "[4]; 42 mg/kg single IV bolus Day 1, 6 mice/group, study end Day 62", "result": 4},
      {"measurement": "Survivors", "setting": "[4]; 42 mg/kg single oral bolus Day 1, 6 mice/group, study end Day 62", "result": 0},
      {"measurement": "Survivors", "setting": "[4]; 73 mg/kg single IV bolus Day 1, 6 mice/group, study end Day 62", "result": 6},
      {"measurement": "Survivors", "setting": "[4]; 73 mg/kg single oral bolus Day 1, 6 mice/group, study end Day 62", "result": 2},
      {"measurement": "Survivors", "setting": "[4]; 104 mg/kg single IV bolus Day 1, 6 mice/group, study end Day 62", "result": 6},
      {"measurement": "Survivors", "setting": "[4]; 104 mg/kg single oral bolus Day 1, 6 mice/group, study end Day 62", "result": 5},
      {"measurement": "62-day survivors", "setting": "[4]; SKMES, 1393 single IV bolus 42 mg/kg (Group 5)", "result": "four"},
      {"measurement": "62-day survivors", "setting": "[4]; SKMES, 1393 single IV bolus 73 mg/kg (Group 4)", "result": "six"},
      {"measurement": "62-day survivors", "setting": "[4]; SKMES, 1393 single IV bolus 104 mg/kg (Group 3)", "result": "six"},
      {"measurement": "62-day survivors", "setting": "[4]; SKMES, 1393 single oral bolus 72.8 mg/kg (Group 12)", "result": "two"},
      {"measurement": "62-day survivors", "setting": "[4]; SKMES, 1393 single oral bolus 104 mg/kg (Group 11)", "result": "Five"}
    ]},
    {"smiles": "CC(=O)O[C@H]1C(=O)[C@@]2(C)[C@H]([C@H](OC(=O)c3ccccc3)[C@]3(O)C[C@H](OC(=O)[C@H](O)[C@@H](NC(=O)c4ccccc4)c4ccccc4)C(C)=C1C3(C)C)[C@]1(OC(C)=O)CO[C@@H]1C[C@@H]2O", "note": "[Taxol, paclitaxel, reference compound]", "values": [
      {"measurement": "survival extension compared to vehicle-treated animals", "setting": "[1]; Taxol 36 mg/kg i.v.", "result": 10, "unit": "%"},
      {"measurement": "MDS (n)", "setting": "[1]; i.v. split dose qd x 1 at MTD (Taxol 36 mg/kg, 1393 72.1 mg/kg), 6 mice/group, 1.5 g cut-off, Day 60", "result": "27.0 ± 4.6 (5) days"},
      {"measurement": "Complete Response", "setting": "[1]; [5]", "result": 0},
      {"measurement": "Stable Disease", "setting": "[1]; [5]", "result": 0},
      {"measurement": "Survivors", "setting": "[1]; [5]", "result": 1},
      {"measurement": "Toxic Deaths", "setting": "[1]; [5]", "result": 0},
      {"measurement": "Mean Score", "setting": "[1]; i.v. split dose qd x 1 at MTD (Taxol 36 mg/kg, 1393 72.1 mg/kg), tumor score 1 to 10 per mouse, group mean", "result": "2.7 ± 1.3"},
      {"measurement": "Complete Responses", "setting": "[2]; [6]", "result": 0},
      {"measurement": "Partial Responses", "setting": "[2]; [6]", "result": 0},
      {"measurement": "Stable Disease", "setting": "[2]; [6]", "result": 1},
      {"measurement": "Survivors", "setting": "[2]; [6]", "result": 1},
      {"measurement": "Toxic Deaths", "setting": "[2]; [6]", "result": 0},
      {"measurement": "MDS (n)", "setting": "[2]; [6]", "result": "23.1 ± 1.7 (5) days"},
      {"measurement": "Complete Responses", "setting": "[2]; [7]", "result": 0},
      {"measurement": "Partial Responses", "setting": "[2]; [7]", "result": 1},
      {"measurement": "Stable Disease", "setting": "[2]; [7]", "result": 0},
      {"measurement": "Survivors", "setting": "[2]; [7]", "result": 1},
      {"measurement": "Toxic Deaths", "setting": "[2]; [7]", "result": 0},
      {"measurement": "MDS (n)", "setting": "[2]; [7]", "result": "23.2 ± 1.3 (5) days"},
      {"measurement": "Stable Disease", "setting": "[2]; MX-1, single oral bolus, Taxol 40 and 28 mg/kg groups together, Day 60", "result": "one"},
      {"measurement": "Partial Response", "setting": "[2]; MX-1, single oral bolus, Taxol 40 and 28 mg/kg groups together, Taxotere 100 and 70 mg/kg groups together, Day 60", "result": "One"},
      {"measurement": "Complete Responses", "setting": "[3]; [8]", "result": 4},
      {"measurement": "Partial Responses", "setting": "[3]; [8]", "result": 1},
      {"measurement": "Stable Disease", "setting": "[3]; [8]", "result": 1},
      {"measurement": "Survivors", "setting": "[3]; [8]", "result": 6},
      {"measurement": "Toxic Deaths", "setting": "[3]; [8]", "result": 1},
      {"measurement": "Complete Responses", "setting": "[3]; [9]", "result": 1},
      {"measurement": "Partial Responses", "setting": "[3]; [9]", "result": 2},
      {"measurement": "Stable Disease", "setting": "[3]; [9]", "result": 1},
      {"measurement": "Survivors", "setting": "[3]; [9]", "result": 4},
      {"measurement": "Toxic Deaths", "setting": "[3]; [9]", "result": 0},
      {"measurement": "% Total Response", "setting": "[4]; [10]", "result": 0, "unit": "%"},
      {"measurement": "Complete Responses", "setting": "[4]; [10]", "result": 0},
      {"measurement": "Partial Responses", "setting": "[4]; [10]", "result": 0},
      {"measurement": "Stable Disease", "setting": "[4]; [10]", "result": 0},
      {"measurement": "Survivors", "setting": "[4]; [10]", "result": 0},
      {"measurement": "Toxic Deaths", "setting": "[4]; [10]", "result": 1},
      {"measurement": "MDS (n)", "setting": "[4]; 40 mg/kg single oral bolus Day 1, 6 mice/group, study end Day 62, days until tumor reached 2.0 g", "result": "9.2±1.4 (5) days"},
      {"measurement": "activity", "setting": "[4]; SKMES, Taxol orally 40 mg/kg single bolus (Group 10)", "result": "not active"}
    ]}
  ]
}
